The source of these data is ChEMBL document CHEMBL2074472, “In vitro and in vivo reversal of cancer cell multidrug resistance by the semi-synthetic antibiotic tiamulin” (Biochem Pharmacol, 1998).

Structures are written as SMILES.

What all share (format): functional, cell-based
For series [1], the target named is ATP-dependent translocase ABCB1 (Homo sapiens, UniProt P08183). Put plainly: TP_TRANSPORTER: increase in Daunomycin intracellular accumulation (Daunomycin: 1.9 uM, Tiamulin: 2 uM) in CEM/VLB3.6 cells, flow cytometry. Particulars: cem/vlb3.6, 2 µM. On the technique in general: A flow cytometer gives signals particle by particle.
The target of series [2] is ATP-dependent translocase ABCB1 (Mus musculus, UniProt P21447). Put plainly: TP_TRANSPORTER: increase in Daunomycin intracellular accumulation (Daunomycin: 1.9 uM, Tiamulin: 2 uM) in P388/ADR25 cells, flow cytometry. The following applies: p388/adr25, 2 µM.
Series [3] deals with Multidrug resistance protein 1a (Rattus norvegicus) (UniProt Q6PSM0). Put plainly: TP_TRANSPORTER: increase in Daunomycin intracellular accumulation (Daunomycin: 1.9 uM, Tiamulin: 2 uM) in AS30-D/COL10 cells, flow cytometry.
Multidrug resistance protein 1a (Rattus norvegicus), sequence (Q6PSM0 as listed by the source): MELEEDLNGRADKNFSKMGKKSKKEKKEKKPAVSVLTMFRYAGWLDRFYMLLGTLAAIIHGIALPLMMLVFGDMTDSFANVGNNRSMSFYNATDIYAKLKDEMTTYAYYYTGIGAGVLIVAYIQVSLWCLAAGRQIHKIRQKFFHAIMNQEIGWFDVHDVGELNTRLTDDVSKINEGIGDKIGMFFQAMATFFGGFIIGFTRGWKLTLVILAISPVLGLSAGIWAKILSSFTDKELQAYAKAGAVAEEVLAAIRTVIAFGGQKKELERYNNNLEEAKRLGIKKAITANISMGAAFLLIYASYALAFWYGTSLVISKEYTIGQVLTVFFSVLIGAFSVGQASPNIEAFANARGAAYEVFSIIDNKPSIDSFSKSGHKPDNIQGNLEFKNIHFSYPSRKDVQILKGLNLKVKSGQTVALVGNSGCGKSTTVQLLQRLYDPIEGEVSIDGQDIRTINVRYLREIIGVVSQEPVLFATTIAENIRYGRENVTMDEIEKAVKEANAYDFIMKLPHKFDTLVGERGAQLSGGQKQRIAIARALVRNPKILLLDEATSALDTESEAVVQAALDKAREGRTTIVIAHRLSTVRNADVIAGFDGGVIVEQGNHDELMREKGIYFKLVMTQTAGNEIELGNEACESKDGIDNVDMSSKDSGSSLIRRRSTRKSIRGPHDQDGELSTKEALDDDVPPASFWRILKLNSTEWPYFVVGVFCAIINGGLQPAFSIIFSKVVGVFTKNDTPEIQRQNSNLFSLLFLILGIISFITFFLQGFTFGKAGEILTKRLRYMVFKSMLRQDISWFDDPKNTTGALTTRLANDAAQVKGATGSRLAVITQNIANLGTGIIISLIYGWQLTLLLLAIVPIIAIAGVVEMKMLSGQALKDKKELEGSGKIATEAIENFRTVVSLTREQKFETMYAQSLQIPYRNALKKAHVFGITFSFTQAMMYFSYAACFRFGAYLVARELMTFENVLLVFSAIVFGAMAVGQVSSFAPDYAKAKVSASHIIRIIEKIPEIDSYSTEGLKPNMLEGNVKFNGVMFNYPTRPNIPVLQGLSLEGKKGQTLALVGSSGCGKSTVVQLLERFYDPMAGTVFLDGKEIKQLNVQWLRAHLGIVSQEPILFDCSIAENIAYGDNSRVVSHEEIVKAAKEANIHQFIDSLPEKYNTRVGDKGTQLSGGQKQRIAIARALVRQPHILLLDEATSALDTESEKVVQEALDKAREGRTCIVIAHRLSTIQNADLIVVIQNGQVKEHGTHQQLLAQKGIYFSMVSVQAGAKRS

ATP-dependent translocase ABCB1 (Homo sapiens, UniProt P08183), sequence (P08183 whole entry): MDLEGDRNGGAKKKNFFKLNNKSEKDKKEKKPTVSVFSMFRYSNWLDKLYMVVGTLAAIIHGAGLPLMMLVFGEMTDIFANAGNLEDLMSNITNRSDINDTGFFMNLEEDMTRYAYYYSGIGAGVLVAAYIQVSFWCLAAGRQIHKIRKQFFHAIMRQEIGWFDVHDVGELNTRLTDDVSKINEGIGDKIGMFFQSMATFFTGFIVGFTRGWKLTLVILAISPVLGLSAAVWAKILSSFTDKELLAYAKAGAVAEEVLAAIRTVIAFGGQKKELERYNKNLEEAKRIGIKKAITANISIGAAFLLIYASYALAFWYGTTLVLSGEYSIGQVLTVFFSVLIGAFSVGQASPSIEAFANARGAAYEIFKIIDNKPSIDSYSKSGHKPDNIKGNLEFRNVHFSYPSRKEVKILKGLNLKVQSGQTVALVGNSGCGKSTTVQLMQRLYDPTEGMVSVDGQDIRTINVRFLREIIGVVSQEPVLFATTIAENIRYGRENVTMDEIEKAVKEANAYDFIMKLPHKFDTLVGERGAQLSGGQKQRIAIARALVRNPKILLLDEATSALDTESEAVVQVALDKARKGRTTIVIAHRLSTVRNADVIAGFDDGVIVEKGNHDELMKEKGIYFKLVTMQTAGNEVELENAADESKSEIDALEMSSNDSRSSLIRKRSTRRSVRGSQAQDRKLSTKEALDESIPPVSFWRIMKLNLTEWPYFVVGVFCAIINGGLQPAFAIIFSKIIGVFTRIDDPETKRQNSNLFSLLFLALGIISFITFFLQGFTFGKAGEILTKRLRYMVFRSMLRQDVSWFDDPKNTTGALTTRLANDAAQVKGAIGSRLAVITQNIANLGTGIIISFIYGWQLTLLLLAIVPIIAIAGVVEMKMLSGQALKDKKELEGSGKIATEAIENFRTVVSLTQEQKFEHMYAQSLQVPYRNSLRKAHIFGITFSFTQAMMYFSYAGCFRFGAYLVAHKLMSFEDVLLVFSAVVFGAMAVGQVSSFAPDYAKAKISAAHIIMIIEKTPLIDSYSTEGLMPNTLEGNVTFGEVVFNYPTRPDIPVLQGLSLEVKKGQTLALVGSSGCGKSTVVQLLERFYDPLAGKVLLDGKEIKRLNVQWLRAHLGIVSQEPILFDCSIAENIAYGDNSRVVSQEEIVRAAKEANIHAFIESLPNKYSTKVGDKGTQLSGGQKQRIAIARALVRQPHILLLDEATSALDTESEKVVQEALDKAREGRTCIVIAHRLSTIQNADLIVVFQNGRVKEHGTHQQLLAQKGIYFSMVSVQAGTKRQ
ATP-dependent translocase ABCB1 (Mus musculus, UniProt P21447), sequence (P21447 whole entry): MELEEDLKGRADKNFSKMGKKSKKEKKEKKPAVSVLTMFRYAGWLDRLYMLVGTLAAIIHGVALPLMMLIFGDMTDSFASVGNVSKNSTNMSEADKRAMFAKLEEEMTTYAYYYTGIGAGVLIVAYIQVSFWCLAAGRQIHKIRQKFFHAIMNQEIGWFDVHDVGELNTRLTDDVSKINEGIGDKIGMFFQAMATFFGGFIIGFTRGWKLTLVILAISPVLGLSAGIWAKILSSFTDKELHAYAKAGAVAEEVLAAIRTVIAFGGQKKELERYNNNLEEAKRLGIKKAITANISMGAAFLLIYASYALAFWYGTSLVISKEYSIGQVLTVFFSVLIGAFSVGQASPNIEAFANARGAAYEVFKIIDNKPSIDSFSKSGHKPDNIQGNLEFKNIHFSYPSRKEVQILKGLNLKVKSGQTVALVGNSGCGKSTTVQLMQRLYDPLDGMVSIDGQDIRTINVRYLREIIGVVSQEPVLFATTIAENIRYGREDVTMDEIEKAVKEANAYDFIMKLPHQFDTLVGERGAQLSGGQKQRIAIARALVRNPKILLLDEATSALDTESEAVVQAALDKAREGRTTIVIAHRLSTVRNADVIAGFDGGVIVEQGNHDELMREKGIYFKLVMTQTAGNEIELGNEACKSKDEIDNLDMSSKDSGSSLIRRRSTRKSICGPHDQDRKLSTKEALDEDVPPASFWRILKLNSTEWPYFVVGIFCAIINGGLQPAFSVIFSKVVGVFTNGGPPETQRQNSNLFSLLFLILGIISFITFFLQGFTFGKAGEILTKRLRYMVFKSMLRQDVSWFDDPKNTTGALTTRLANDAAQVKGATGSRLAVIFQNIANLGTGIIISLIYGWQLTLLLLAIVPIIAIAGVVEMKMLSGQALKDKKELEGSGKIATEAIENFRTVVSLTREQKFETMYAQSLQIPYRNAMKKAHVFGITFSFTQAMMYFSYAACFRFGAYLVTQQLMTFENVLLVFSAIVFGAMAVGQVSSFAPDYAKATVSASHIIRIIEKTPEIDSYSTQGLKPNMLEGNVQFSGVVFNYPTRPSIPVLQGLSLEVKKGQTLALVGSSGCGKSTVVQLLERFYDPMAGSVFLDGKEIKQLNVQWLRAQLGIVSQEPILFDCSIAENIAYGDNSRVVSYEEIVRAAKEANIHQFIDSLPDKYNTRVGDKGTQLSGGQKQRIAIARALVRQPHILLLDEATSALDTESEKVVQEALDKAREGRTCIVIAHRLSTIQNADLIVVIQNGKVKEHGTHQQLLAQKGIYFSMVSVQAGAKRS

On to `C=C[C@]1(C)C[C@@H](OC(=O)CSCCN(CC)CC)[C@]2(C)[C@H](C)CC[C@]3(CCC(=O)[C@H]32)[C@@H](C)[C@@H]1O` [TIAMULIN], for which the Activity entry in series [1], in series [2] and in series [3] was “inhibitor [+]” each time.
